The record followed here is patent US10961242B2, “Compounds as autotaxin inhibitors and pharmaceutical compositions comprising the same” (LegoChem Biosciences, Inc., priority 2018, dated 2021).

Broadly, the IC50 is the point on the concentration scale where inhibition reaches its midpoint.

Like-named read-outs stand apart in the source and are kept apart here.

For data set [1], the system named is LPA production in blood serum caused by autotoxin. Description: Inhibitory activity on LPA production in human blood serum. In kind it is biochemical. Particulars: human blood serum (h), 18:1 LPC, 3 hours at 37° C. The procedure:
(§1) After 100-fold dilution of each test compound solution (5 μL) (10 mM, 100%, dimethyl sulfoxide) with 495 μL of methanol, 3 μL of the diluted methanol solution (1% dimethyl sulfoxide) was mixed with 57 μL of human or mouse blood serum solution in a 1.5 mL tube. […] Subsequently, a solution prepared by diluting 10 mg/mL 18:1 LPC solution (50% ethanol) with blood serum to have concentration of 375 μg/mL was aliquoted in an amount of 2 μL to each tube so as to have 50 μL. Each tube was kept for 3 hours in a water bath at 37° C. to allow a reaction. To the tube obtained after the reaction, 100 μL of 0.5 μM 17:0 LPA solution (chloroform/methanol/water=65/35/8) was aliquoted and mixed therein. Centrifuge was carried out for 10 minutes using a centrifuge at conditions of 14,000 rpm and 4° C. 100 μL of 50% methanol solution is aliquoted first to a 96-well polypropylene plate (Agilent Technology 5042-1385), and the supernatant (50 μL) in a tube after the centrifuge was carefully transferred to the plate followed by mixing. After covering it with Well cap (Thermo 276011), analysis was carried out by LC-MS/MS (Agilent 1260).
(§2) In the following Table 3, the mouse blood serum was described as (m) and human blood serum was described as (h).

A further data set deals with human ENPP2 (Homo sapiens (Human), UniProt Q13822). Description: Inhibitory activity on human ENPP2 (FS-3 assay). In kind it is biochemical. As to the method: Two-fold dilution of each test compound solution (10 μM, 100% dimethyl sulfoxide) is carried out on 96-well V bottom plate (Costar 3363). After ten-fold dilution of each the test compound solution (100% dimethyl sulfoxide) with deionized distilled water, 10 μL of the diluted each mpound solution (10% dimethyl sulfoxide) was aliquoted to a black flat bottom 96-well plate (Costar 3915).

Data set [2] deals with LPA production in blood serum caused by autotoxin. Description: Inhibitory activity on LPA production in mouse blood serum. In kind it is biochemical. The note with it: mouse blood serum (m), 18:1 LPC, 3 hours at 37° C. As to the method:
as §1, §2

Data set [3] can be described thus: Microsomal stability, rat liver microsomes. In kind it is in vitro ADME. The note with it: male, SD, pH 7.4; rat liver microsomes (r), 0.5 mg/mL, NADPH regenerating system; read-out: MS (microsomal stability) t1/2. As to the method:
(§3) A 2.5 mM stock solution of test compound in DMSO is diluted to 25 uM with 100 mM potassium phosphate buffer (pH 7.4) containing 5 mM EDTA. This solution was mixed with reaction mixtures (final concentration 1 μM). The incubation mixtures (final volume 700 μL) of test compound with liver microsomes [Xenotech; rat (male SD), human (mixed gender)] consisted of liver microsomes (0.5 mg/mL), substrate (Compound 4, […]), NADPH regenerating system (1.3 mM NADP+, 3.3 mM Glucose-6-phosphate, 3.3 mM MgCl2, 0.4 U/ml Glucose-6-phosphate dehydrogenase) in 81.3 mM potassium phosphate buffer (pH 7.4) containing 1 mM EDTA in duplicates. The reaction was initiated by addition of the NADPH regenerating system after preincubation at 37° C. for 10 min with test compounds. 100 uL of aliquot of the sample was removed at 0, 5, 10, 20, 30 and 60 min. The reaction was stopped by addition of 200 uL of acetonitrile containing internal standard (0.3 uM of Dextromethorphan). Each sample was mixed and centrifuged at 14000 rpm for 10 min. The resulting supernatant was analyzed by the LC-MS/MS method for determination of loss of parent compound. % parent remaining was calculated at 6 point time testing was done for T½ determination.
For orientation: Microsomes from liver hold many membrane-bound enzymes, among them those of drug oxidation.

A further data set addresses human ATX (Homo sapiens (Human), UniProt Q13822). Kind of data set: Bis-pNPP assay. In kind it is biochemical. Particulars: bis-pNPP substrate, read-out: Enzymatic assay (IC50) bis-pNPP. The procedure: Eight-fold dilution of each test compound solution (10 μM, 100% dimethyl sulfoxide) is carried out on 96-well V bottom plate (Costar 3363). After […] of each test compound solution (100% dimethyl sulfoxide) with deionized distilled water, 10 μL of the diluted each test compound solution (10% dimethyl sulfoxide) was aliquoted to a black flat bottom 96-well plate (Costar 3915). 50 μL of 60 mM Tris-HCl (pH9.0) buffer was added thereto, and subsequently 20 μL of 3.75 nM human ATX solution (buffer solution: 50 mM Tris-HCl (pH8.5), 5 mM CaCl2, 2.5 mM MgCl2, 0.01% Brij35) and 20 μL of 25 mM Bis-pNPP (bis(p-Nitrophenyl)-phosphate sodium salt) solution (buffer solution: 50 mM Tris-HCl (pH9.0)) were added thereto, respectively, followed by mixing. […] Furthermore, IC50 values that are shown in Table 3 were calculated using Grafit5 Software based on the inhibitory activity percentage ratio.

Data set [4] can be described thus: Microsomal stability, human liver microsomes. In kind it is in vitro ADME. The note with it: both sexes, pH 7.4; human liver microsomes (h), 0.5 mg/mL, NADPH regenerating system; read-out: MS (microsomal stability) t1/2. The procedure:
as §3

The subject of data set [5] is LPA production in mouse plasma. Description: Ex-vivo assay (LPC assay) in mouse plasma. In kind it is biochemical. The note with it: LPA 18:1. As to the method: After 100-fold dilution of each test compound solution (5 μL) (10 mM, 100%, dimethyl sulfoxide) with 495 μL of methanol, 3 μL of the diluted methanol solution (1% dimethyl sulfoxide) was mixed with 57 μL of human or mouse blood serum solution in a 1.5 mL tube. The mixed test compound solution was serially diluted, 12 μL for each, with 48 μL of 100% blood serum to have 5 different concentrations, and each tube was kept for 15 minutes in a water bath with constant temperature of 37° C. Subsequently, a solution prepared by diluting 10 mg/mL 18:1 LPC solution (50% ethanol) with blood serum to have concentration of 375 μg/mL was aliquoted in an amount of 2 μL to each tube so as to have 50 μL. Each tube was kept for 3 hours in a water bath at 37° C. to allow a reaction. To the tube obtained after the reaction, 100 μL of 0.5 μM 17:0 LPA solution (chloroform/methanol/water=65/35/8) was aliquoted and mixed therein. Centrifuge was carried out for 10 minutes using a centrifuge at conditions of 14,000 rpm and 4° C. 100 μL of 50% methanol solution is aliquoted first to a 96-well polypropylene plate (Agilent Technology 5042-1385), and the supernatant (50 μL) in a tube after the centrifuge was carefully transferred to the plate followed by mixing. After covering it with Well cap (Thermo 276011), analysis was carried out by LC-MS/MS (Agilent 1260).
The test was carried out in the same process as Test example 2 to obtain the IC50 values in the following table 4.

`O=C(Cc1nnc(-c2cnc(NC3CC=C(c4cccc(Cl)c4)CC3)nc2)o1)N1CCc2[nH]nnc2C1` (centres unmarked) [Compound 35, 2-[5-(2-{[4-(3-chlorophenyl)cyclohex-3-en-1-yl]amino}pyrimidin-5-yl)-1,3,4-oxadiazol-2-yl]-1-{1H,4H,5H,6H,7H-[1,2,3]triazolo[4,5-c]pyridin-5-yl}ethan-1-one]: the half-inhibitory concentration (IC50) in data set [1] came out at 99 nM; at human ENPP2 (human ENPP2, FS-3 substrate, 30 min at 37° C., read-out: IC50), 2.4 nM; in data set [2], 46 nM.
On to `O=C(Cn1cc(-c2cnc(NC3Cc4ccccc4C3)nc2)c(-c2ccncc2)n1)N1CCc2[nH]nnc2C1` [Compound 96, 2-(4-{2-[(2,3-dihydro-1H-inden-2-yl)amino]pyrimidin-5-yl}-3-(pyridin-4-yl)-1H-pyrazol-1-yl)-1-{1H,4H,5H,6H,7H-[1,2,3]triazolo[4,5-c]pyridin-5-yl}ethan-1-one], for which the half-life at 1 µM in data set [3] turned out to be 30 ± 1.57 min; in data set [4] it was 22.2 min. In addition, the IC50 on human ATX is less than 1.56 nM; in data set [5], 3.65 nM; on human ENPP2 (FS-3 assay, same process as Test example 1, read-out: Enzymatic assay (IC50) FS-3), 2.02 nM.
